Structures can show the parent of a compound that is named as a salt. Where two headings read alike, the source gives them in different places.
Assays:
[1] = target: T1, cloned human κ opioid receptor (Homo sapiens, UniProt P41145); test: Receptor binding: inhibition of [3H]diprenorphine binding to cloned human κ opioid receptor; conditions: for inhibition at 10 µM: read-out: % Inhibition at 10 μM (κ); for % Inhibition at 10 μM (κ): [3H]diprenorphine binding
T1 construct: expressed in transfected cells; host or cells: CHO cells (membranes)
Protocol: (§1) IC50 values were obtained by nonlinear analysis of the data using GraphPad Prism version 3.00 for Windows (GraphPad Software, San Diego). Ki values were obtained by Cheng-Prusoff corrections of IC50 values.
(§2) After dilution in buffer A and homogenization as before, membrane proteins (10-80 μg) in 250 μL were added to mixtures containing test compound and [^3H]diprenorphine (0.5 to 1.0 nM, 40,000 to 50,000 dpm) in 250 μL of buffer A in 96-well deep-well polystyrene titer plates (Beckman). After incubation at room temperature for one hour, the samples were filtered through GF/B filters that had been presoaked in a solution of 0.5% (w/v) polyethylenimine and 0.1% (w/v) bovine serum albumin in water. The filters were rinsed 4 times with 1 mL of cold 50 mM Tris HCl, pH 7.8 and radioactivity remaining on the filters determined by scintillation spectroscopy. Nonspecific binding was determined by the minimum values of the titration curves and was confirmed by separate assay wells containing 10 μM naloxone.
(§3) To determine the equilibrium dissociation constant for the inhibitors (Ki), radioligand bound (cpm) in the presence of various concentrations of test compounds was measured. The concentration to give half-maximal inhibition (EC50) of radioligand binding was determined from a best nonlinear regression fit to the following equation,
(§4) The nonlinear regression fit was performed using the program Prism® (GraphPad Software, San Diego, Calif.). The Ki values were then determined from the EC50 values by the following equation,
(§5) [formula] where [ligand] is the concentration of radioligand and Kd is the equilibrium dissociation constant for the radioligand.
as §1
(§6) [formula] where [ligand] is the concentration of radioligand and Kd is the equilibrium dissociation constant for the radioligand. Receptor-Mediated [^35S]GTP[…]S Binding

[2] = target: T2, cloned human μ opioid receptor (Homo sapiens, UniProt P35372); test: Receptor binding: inhibition of [3H]diprenorphine binding to cloned human μ opioid receptor; conditions: for % Inhibition at 10 μM (μ): [3H]diprenorphine binding, cloned human μ opioid receptor; for inhibition at 10 µM: read-out: % Inhibition at 10 μM (μ)
T2 construct: expressed in transfected cells; host or cells: CHO cells (membranes)
Protocol: as §1, §2, §3, §4, §5, §1, §6

[3] = system: forced swim behaviour in rats; test: Forced swim assay; type: in vivo, Male Sprague-Dawley rats; conditions: percent change ±SEM relative to vehicle-treated rats
From the text: Male Sprague-Dawley rats (approximately 200 g) are placed in a tank of room temperature water for a fifteen min practice swim. Every five sec during the first five min of the practice swim, the rats are rated as immobile (floating with motion needed to keep head above the water), swimming (movement across the swim), or climbing (actively trying to climb out of the tank of water, upward directed movements of the forepaws). The percentage of time the rats spent in each of these responses is calculated.
Approximately 24 h after the practice swim, the rats are treated with vehicle or test compound and placed in the tank for a 5 min swim. As was the case with the practice swim, the rats are rated as immobile, swimming, or climbing during the test swim and the percentage of time spent in each of these responses is calculated. The data is analyzed by one-way ANOVA with post-hoc analysis to compare the behavioral response after vehicle treatment to the behavioral response after drug treatment for each of the three behavioral responses. The level of significance is set at p<0.05.

[4] = system: FCA-induced hyperalgesia in rats; test: Freunds Complete Adjuvant (FCA)-induced hyperalgesia, paw pressure thresholds; type: in vivo
Protocol: Rats were injected intraplantar with FCA and 24 h later treated with tested compounds administered orally. Paw Pressure Thresholds (PPT) was assessed 30, 60, 120, and 240 minutes after drug treatment.

[5] = system: acetic acid-induced writhing in mice; test: Acetic acid-induced writhing; type: in vivo, Male ICR mice; conditions: 30 mg/kg (s.c.)
Protocol: Male ICR mice weighing 20-25 g are injected s.c. with either vehicle or test compound 15 min before they are injected intraperitoneally with 0.6% acetic acid. […] treatment with acetic acid, the number of writhes is counted for 10 minutes. Dose response curves are expressed as the percent inhibition of acetic acid induced writhing, when compared to the mean number of writhes observed in the vehicle-treated mice. The mean percent inhibition (% I) of acetic acid-induced writhing for drug-treated mice is calculated according to the following formula: […]
The mean individual response is the mean number of writhes in mice treated with test compound. The mean vehicle response is the mean number of writhes in mice treated with vehicle.
Male ICR mice weighing 20-25 g are injected s.c. with either vehicle or test compound 15 minutes before they are injected intraperitoneally with 0.6% acetic acid. At 5 minutes after treatment with acetic acid, the number of writhes is counted for 10 minutes. Dose response curves are expressed as the percent inhibition of acetic acid induced writhing, when compared to the mean number of writhes observed in the vehicle-treated mice. The mean percent inhibition (% I) of acetic acid-induced writhing for drug-treated mice is calculated according to the following formula:
[formula] […]

[6] = system: castor oil-induced diarrhea in mice; test: Castor oil-induced diarrhea; type: in vivo; conditions: Mus musculus, sc, read-out: ED50 (incidence of castor oil-induced diarrhea)
Protocol: Mice were fasted overnight with water ad libitum. Mice were weighed, dosed orally with 0.6 mL of castor oil and placed in individual cubicles (11 cm×10 cm) lined with a pre-weighed sheet of absorbent paper. Thirty min after receiving castor oil, mice were injected s.c with tested compound. Seventy-five min after dosing with castor oil, the mice and absorbent paper were reweighed and the number of mice with diarrhea (defined as wet, unformed stool) was determined.
Percent inhibition by tested compounds in castor oil-induced diarrhea assay was determined by the following formula: […]

[7] = target: T3, cloned human δ opioid receptor (Homo sapiens, UniProt P41143); test: Receptor-mediated [35S]GTPγS binding, membranes containing cloned human δ opioid receptors; type: biochemical; conditions: agonist stimulation of [35S]GTPγS binding
T3 construct: expressed in transfected cells; host or cells: CHO cells (membranes)
Protocol: (§7) Assays are carried out in 96-well FlashPlates® (Perkin Elmer Life Sciences, Inc, Boston, Mass.). Membranes prepared from CHO cells expressing the appropriate receptor (50-100 μg of protein) are added to assay mixtures containing agonist with or without antagonists, 100 μM [^35S]GTPγS (approx. 100,000 dpm), 3.0 μM GDP, 75 mM NaCl, 15 mM MgCl2, 1.0 mM ethylene glycol-bis(β-aminoethyl ether)-N,N,N′,N′-tetracetic acid, 1.1 mM dithiothreitol, 10 μg/mL leupeptin, 10 μg/mL pepstatin A, 200 μg/mL bacitracin, and 0.5 μg/mL aprotinin in 50 mM Tris-HCl buffer, pH 7.8. After incubation at room temperature for one hour, the plates are sealed, centrifuged at 800×g in a swinging bucket rotor for 5 min and bound radioactivity determined with a TopCount microplate scintillation counter (Packard Instrument Co., Meriden, Conn.).
as §7, with “pM [^35S]GTP[…]S” for “μM [^35S]GTPγS”

[8] = target: T3, cloned human δ opioid receptor; test: Receptor binding: inhibition of [3H]diprenorphine binding to cloned human δ opioid receptor
Protocol: as §1, §2, §3, §4, §5, §1, §6

[9] = [3H]diprenorphine displacement, cloned human δ opioid receptor, read-out: Ki(δ)

T2 sequence (P35372 whole entry): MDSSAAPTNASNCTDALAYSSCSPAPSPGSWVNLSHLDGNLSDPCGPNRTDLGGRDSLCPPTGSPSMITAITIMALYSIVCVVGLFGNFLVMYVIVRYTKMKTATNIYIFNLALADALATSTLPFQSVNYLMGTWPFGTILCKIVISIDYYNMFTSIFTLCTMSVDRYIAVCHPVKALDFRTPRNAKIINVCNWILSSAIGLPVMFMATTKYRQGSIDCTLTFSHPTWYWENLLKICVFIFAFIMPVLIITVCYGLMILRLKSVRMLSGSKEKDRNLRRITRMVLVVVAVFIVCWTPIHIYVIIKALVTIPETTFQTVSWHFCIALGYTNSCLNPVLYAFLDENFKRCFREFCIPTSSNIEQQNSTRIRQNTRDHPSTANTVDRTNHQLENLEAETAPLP
T1 sequence (P41145 whole entry): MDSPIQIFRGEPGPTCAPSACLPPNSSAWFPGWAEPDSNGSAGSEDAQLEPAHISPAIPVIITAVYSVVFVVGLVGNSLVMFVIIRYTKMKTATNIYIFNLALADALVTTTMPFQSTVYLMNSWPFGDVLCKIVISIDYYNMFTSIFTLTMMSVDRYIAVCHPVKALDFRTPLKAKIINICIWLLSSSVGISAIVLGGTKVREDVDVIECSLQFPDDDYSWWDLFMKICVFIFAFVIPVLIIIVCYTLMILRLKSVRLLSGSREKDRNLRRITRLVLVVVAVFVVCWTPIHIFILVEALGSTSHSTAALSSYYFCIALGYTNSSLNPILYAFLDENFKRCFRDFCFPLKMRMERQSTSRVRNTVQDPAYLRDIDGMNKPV
T3 sequence (P41143 whole entry): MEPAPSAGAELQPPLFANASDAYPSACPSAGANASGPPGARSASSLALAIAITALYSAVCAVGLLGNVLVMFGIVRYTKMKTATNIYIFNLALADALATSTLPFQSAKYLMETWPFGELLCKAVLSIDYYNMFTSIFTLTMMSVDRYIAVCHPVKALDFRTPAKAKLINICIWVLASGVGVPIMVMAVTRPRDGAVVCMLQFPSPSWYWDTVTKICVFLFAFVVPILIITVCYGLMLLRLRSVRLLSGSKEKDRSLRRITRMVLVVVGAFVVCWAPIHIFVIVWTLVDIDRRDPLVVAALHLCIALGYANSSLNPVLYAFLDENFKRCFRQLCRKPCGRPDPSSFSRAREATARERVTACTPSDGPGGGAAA

Row | SMILES | inhibition at 10 µM [1] [%] | EC50 [7] [µM] | Ki [8] [µM] | inhibition at 10 µM [2] [%] | also measured
1 | CCN(CC)C(=O)c1ccc(C2=CC3(CCNCC3)Oc3ccccc32)cc1 [Example 1A] |  |  |  |  | Ki [1]: > 1 µM; Ki [2]: 0.98 µM; IMMOBILITY (% Decrease) ([3]; 3 mg/kg p.o.): 17 ± 10%; SWIMMING (% Increase) ([3]; 3 mg/kg p.o.): 37 ± 17%; IMMOBILITY (% Decrease) ([3]; 30 mg/kg p.o.): 43 ± 13 %; SWIMMING (% Increase) ([3]; 30 mg/kg p.o.): 137 ± 35 %
2 | CCN(CC)C(=O)c1ccc(C2=CC3(CCNCC3)Oc3ccccc32)cc1 [Example Z1, 4-[(4-N,N-diethylaminocarbonyl)phenyl]-spiro[2H,1-benzopyran-2,4′-piperidine]hydrochloride] | 32 |  |  |  | ED50 ([4]; Rattus norvegicus, po): 2.5 mg/kg; increase of Paw Pressure Thresholds (PPT) in the inflamed paw ([4]; inflamed paw, 1-2 h after oral administration): 170-180%; inhibition of acetic acid-induced writhing [5]: 69%; ED50 [6]: 8.7 mg/kg
3 | CCN(CC)C(=O)c1ccc(C2=CC3(CCNCC3)Oc3ccc(F)cc32)cc1 [Example Z2, 4-[(4-N,N-diethylaminocarbonyl)phenyl]-6-fluoro-spiro[2H,1-benzopyran-2,4′-piperidine]hydrochloride] | 17 | 0.07 | 0.0026 |  | Ki [2]: 4.5 µM
4 | CCN(CC)C(=O)c1ccc(C2=CC3(CCNCC3)Oc3ccc(O)cc32)cc1.Cl [Example Z3, 4-[(4-N,N-diethylaminocarbonyl)phenyl]-6-hydroxyspiro[2H,1-benzopyran-2,4′-piperidine]hydrochloride] |  | 0.0014 |  |  | Ki ([1]; [3H]diprenorphine displacement, cloned human κ opioid receptor, read-out: Ki(κ)): 0.79 µM; % Inhibition at 10 μM (μ) [2]: 50%; Ki [8, 9]: 0.00036 µM
5 | CCN(CC)C(=O)c1ccc(C2CC3(CCNCC3)Oc3ccccc32)cc1.Cl (centres unmarked) [Example Z4, 4-[(4-N,N-diethylaminocarbonyl)phenyl]-3,4-dihydrospiro[2H,1-benzopyran-2,4′-piperidine]hydrochloride] |  |  |  |  | % Inhibition at 10 μM (κ) ([1]; cloned human κ opioid receptor): 19%; % Inhibition at 10 μM (μ) [2]: 34%
6 | CCN(CC)C(=O)c1ccc(C2=CC3(CCN(C)CC3)Oc3ccccc32)cc1 [Example Z5, 4-[(4-N,N-diethylaminocarbonyl)phenyl]-N-methyl-spiro[2H,1-benzopyran-2,4′-piperidine]hydrochloride] | 23 | 0.14 | 0.0058 | 17 | 
7 | CCCN(CC1CC1)C(=O)c1ccc(C2=CC3(CCNCC3)Oc3ccccc32)cc1 [Example Z7, 4-[(4-N-propyl-N-cyclopropylmethylaminocarbonyl)phenyl]-spiro[2H,1-benzopyran-2,4′-piperidine]hydrochloride] | 51 | 0.029 | 0.0017 |  | Ki [2]: 2.5 µM
8 | O=C(O)C1CCN(C(=O)c2ccc(C3=CC4(CCNCC4)Oc4ccccc43)cc2)CC1 [Example Z9, 4-[4-(4-carboxypiperidineaminocarbonyl)phenyl]-spiro[2H,1-benzopyran-2,4′-piperidine]hydrochloride] | 24 | 0.16 | 0.015 | 17 | 
9 | C1=C(c2ccc(-c3nn[nH]n3)cc2)c2ccccc2OC12CCNCC2.O=C(O)C(F)(F)F [Example Z10, 4-[4-(2H-tetrazolyl)phenyl]-spiro[2H,1-benzopyran-2,4′-piperidine]trifluoroacetic acid salt] |  | 0.022 |  |  | % Inhibition at 10 μM (κ) ([1]; cloned human κ opioid receptor): 1.3%; % Inhibition at 10 μM (μ) [2]: 29%; Ki [8, 9]: 0.0027 µM
10 | O=C(O)CCCn1nnc(-c2ccc(C3=CC4(CCNCC4)Oc4ccccc43)cc2)n1 [Example Z11, 4-[4-(4-carboxypropyl-tetrazol-2-yl)phenyl]-spiro[2H,1-benzopyran-2,4′-piperidine]] | -3.3 | 0.14 | 0.008 | 3.7 | 
11 | C1=C(c2cccnc2)c2ccccc2OC12CCNCC2 [Example Z12, 4-(3-pyridyl)-spiro[2H,1-benzopyran-2,4′-piperidine]hydrochloride] | 44 |  | 0.054 | 36 | 
12 | CS(=O)(=O)c1ccc(C2=CC3(CCNCC3)Oc3ccccc32)cc1 [Example Z13, 4-[4-(methanesulfonyl)-phenyl]-spiro[2H,1-benzopyran-2,4′-piperidine]hydrochloride] | 17 |  | 0.028 | 41 | 
13 | CCN(CC)C(=O)c1ccc(C2=CC3(CC4CCC(C3)N4)Oc3ccccc32)cc1 (centres unmarked) [Example Z14, 4-[(4-N,N-diethylaminocarbonyl)phenyl]spiro[2H,1-benzopyran-2,4′-nortropine]hydrochloride] | 8 |  | 0.026 | 24 | 
